Values of other authors as cited in EP1897537A1, “Composition comprising an angiotensin II receptor antagonist” (Novartis AG, priority 2006, dated 2008).

Legend:
[1] = immediate release tablet formulation (Diovan ®)
[2] = most acidic pKa; fumaric acid values at 25 °C

SMILES | bioavailability [1] | pKa1 [2]
CCCCC(=O)N(Cc1ccc(-c2ccccc2-c2nnn[nH]2)cc1)[C@H](C(=O)O)C(C)C [Valsartan, (S)-N-(1-carboxy-2-methylprop-1-yl)-N-pentanoyl-N-[2'-(1H-tetrazol-5-yl)biphenyl-4-ylmethyl]amine] | around 30% | 
O=C(O)CCC(=O)O [succinic acid] |  | about 4.2
